The values that follow come from PMC10578023 (Cell Communication and Signaling : CCS, 2023).

The test system of one data set is human monocytes. As to the kind of experiment: IFNα-induced differentiation of human monocytes to dendritic cells (CD80, CD83, CD86). The following applies: 5, 20 or 100 nM, 6 days. In kind it is cell-based. As to the method: First, monocytes in human PBMCs were isolated using an EasySep™ Human CD14 Positive Selection Kit II (17858; Stemcell Technologies, Vancouver, Canada). […] The media were half-changed on days 3 and 5. On day 6, cells were collected and stained with BV421 aqua fluorescent reactive dye (L34966A; Invitrogen), FITC mouse anti-human CD80 (555683; BD Biosciences), PE mouse anti-human CD86 (560957; BD Biosciences) or BUV737 mouse anti-human CD83 (612823; BD Biosciences) antibodies for 20 min. After staining, cells were washed twice and analyzed by flow cytometry.

Data set [1] concerns the target T1, human TYK2 pseudokinase domain (JH2) (Homo sapiens, UniProt P29597).
T1 construct: was added to the recombinant TYK2 pseudokinase domain
As to the kind of experiment: TYK2 pseudokinase domain (JH2) binding assay, HTRF tracer competition. On the procedure: An assay that measures the ability of a compound to bind to the TYK2 pseudokinase domain through competition with a tracer was employed. First, human polyhistidine-tag (his-tagged) TYK2 pseudokinase was added to different concentrations of QL-1200186. […] After 1 h at RT, the homogeneous time-resolved fluorescence (HTRF) signal was measured on a plate reader (Envision™; PerkinElmer, Waltham, MA, USA).
(In general: Time-resolved FRET reads energy transfer from a long-lived donor to a nearby acceptor.)

The subject of data set [2] is TYK2/JAK2. As to the kind of experiment: IL-12/IL-18-induced IFNγ production in NK-92 cells, ELISA. In kind it is cell-based, human. As to the method:
(§1) The inhibitory effect of QL-1200186 on IL-12/IL-18-induced IFNγ production in NK cells or human whole blood was determined by enzyme-linked immunosorbent assay (ELISA). NK92 cells were stimulated with recombinant human IL-12 (2 ng/mL; 200–12; PeproTech, Cranbury, NJ, USA) and recombinant human IL-18 (5 ng/mL; 9124-IL-050/CF; R&D Systems, Minneapolis, MN, USA) with or without QL-1200186 for 24 h at 37 °C. For human whole blood cells, whole blood (200 μL) was preincubated with the compound for 1 h and then stimulated with recombinant human IL-12 (2 ng/mL) or recombinant human IL-18 (10 ng/mL) for 24 h. After centrifugation, the supernatant was collected, and IFNγ production in the supernatant was measured with human IFNγ ELISA kits according to the manufacturer’s instructions (Biolegend, 430,104).
A general note: In an ELISA, binding on a coated surface is turned into a signal by an enzyme label.

Another data set is described as follows: logD7.4. The conditions noted are these: pH 7.4. In kind it is physicochemical.
Data set [3] has as its system TYK2/JAK2. As to the kind of experiment: IL-12/IL-18-induced IFNγ production in human whole blood, ELISA. In kind it is cell-based. The following applies: IL-12-induced. On the procedure: as §1
For the next data set, the target named is CYP450 2C9 (Homo sapiens, UniProt P11712). The data set is described as follows: CYP inhibition assay. The data set is classed as in vitro ADME. As to the method: (§2) The ADME properties of QL-1200186 in vitro were measured by the following assays: Caco-2 permeability assay, CYP inhibition assay, protein binding assay, and liver microsome assay. Each assay was performed as previously described.
Chain of CYP450 2C9 (P11712 whole entry): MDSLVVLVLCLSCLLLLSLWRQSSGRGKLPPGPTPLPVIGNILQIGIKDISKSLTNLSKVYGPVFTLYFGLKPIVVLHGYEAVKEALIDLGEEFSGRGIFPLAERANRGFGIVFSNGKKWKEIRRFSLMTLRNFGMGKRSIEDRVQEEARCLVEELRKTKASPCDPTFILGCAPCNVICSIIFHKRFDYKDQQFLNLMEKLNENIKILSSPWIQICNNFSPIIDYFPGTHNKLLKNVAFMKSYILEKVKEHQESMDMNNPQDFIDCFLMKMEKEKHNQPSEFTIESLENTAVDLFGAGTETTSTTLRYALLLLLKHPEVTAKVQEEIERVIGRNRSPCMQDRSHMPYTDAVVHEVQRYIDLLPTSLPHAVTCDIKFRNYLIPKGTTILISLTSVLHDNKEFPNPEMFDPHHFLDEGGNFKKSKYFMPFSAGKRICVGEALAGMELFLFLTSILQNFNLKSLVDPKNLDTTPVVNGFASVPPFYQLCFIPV

The target in a further data set is CYP450 2D6 (Homo sapiens, UniProt P10635). The data set is described as follows: CYP inhibition assay. In kind it is in vitro ADME. As to the method:
as §2

In a further data set the target is CYP450 2C19 (Homo sapiens, UniProt P33261). As to the kind of experiment: CYP inhibition assay. The data set is classed as in vitro ADME. As to the method: as §2
Chain of CYP450 2C19 (P33261 whole entry): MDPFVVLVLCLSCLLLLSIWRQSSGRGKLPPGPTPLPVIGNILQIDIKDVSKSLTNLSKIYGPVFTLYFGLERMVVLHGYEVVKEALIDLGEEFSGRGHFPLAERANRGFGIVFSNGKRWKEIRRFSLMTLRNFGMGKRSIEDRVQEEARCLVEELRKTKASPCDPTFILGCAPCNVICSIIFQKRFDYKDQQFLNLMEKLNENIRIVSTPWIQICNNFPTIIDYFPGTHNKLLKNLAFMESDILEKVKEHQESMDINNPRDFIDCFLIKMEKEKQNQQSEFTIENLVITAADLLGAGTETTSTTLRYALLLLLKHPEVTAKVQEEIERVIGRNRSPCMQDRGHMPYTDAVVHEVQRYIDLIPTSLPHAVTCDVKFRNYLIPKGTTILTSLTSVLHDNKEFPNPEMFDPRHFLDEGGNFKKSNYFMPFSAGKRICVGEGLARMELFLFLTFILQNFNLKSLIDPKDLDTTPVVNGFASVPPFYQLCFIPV
A further data set relates to CYP450 3A4/5. As to the kind of experiment: CYP inhibition assay. The data set is classed as in vitro ADME. As to the method:
as §2

Data set [4] deals with JAK1/JAK3. As to the kind of experiment: IL-2-stimulated pSTAT5 in human whole blood. The data set is classed as cell-based. As to the method:
With respect to IL-2-stimulated JAK1/3 activation in human whole blood cells, whole blood (50 μL) was preincubated with compounds for 30 min and then stimulated with IL-2 (20 ng/mL) for 15 min.
(§3) The stimulations stated above were terminated with prewarmed Lyse/Fix Buffer (558,049; BD Biosciences, San Jose, CA, USA) for 10 min. Cells were stained with an anti-cluster of differentiation (CD)3 fluorescein isothiocyanate (FITC) antibody (required for PBMCs but not for the other cell types), washed, and permeabilized on ice using Perm III Buffer (558,050; BD Biosciences) prior to staining with an Alexa Fluor 647 anti-phosphorylated (p)STAT5 (pY694) antibody for 30 min and analyzed by flow cytometry. Phosphorylation of STAT5 was quantified by the median fluorescence intensity (MFI) after gating on the CD3-positive population.

Data set [5] concerns TYK2/JAK1. As to the kind of experiment: IFNα-induced pSTAT1 in CD3+ T cells of human PBMCs. The data set is classed as cell-based. On the procedure:
The reaction was terminated by collecting cells for surface staining. Cells were stained with anti-CD3 FITC (300406; Biolegend, San Diego, CA, USA), anti-CD19 APC (555415; BD Biosciences) or aqua fluorescent reactive dye BV421 (L34966A; Invitrogen, Carlsbad, CA, USA) antibodies for 20 min. After washing, fixation buffer (557870; BD Biosciences) was added and incubated for 10 min. Cells were washed and permeabilized on ice using Perm III Buffer (558050; BD Biosciences). Cells were stained with PE anti-PSTAT1 antibody (562069; BD Biosciences) for 30 min and analyzed by flow cytometry.

In data set [6] the test system is JAK1/JAK3. As to the kind of experiment: IL-2-stimulated pSTAT5 in human PBMC. The conditions noted are these: @10μM. The data set is classed as cell-based. As to the method: With regard to IL-2-stimulated JAK1/3 activation in human PBMCs, after 1 h of incubation with QL-1200186, human PBMCs were stimulated with human IL-2 (20 ng/mL; C013; Novoprotein) for 20 min.
as §3

For another data set, the target named is JAK1 (JH1) (Homo sapiens, UniProt P23458). The data set is described as follows: JH1 kinase assay, HTRF KinEASE-TK. The data set is classed as biochemical. As to the method:
We measured the ability of a compound to bind to JAK1/2/3 and the TYK2 JH1 domain by using HTRF® KinEASE™-TK kits (Millipore, Bedford, MA, USA). […] Next, SA-XL665 and TK antibody-Eu3 were added to the detection buffer and incubated for 1 h at RT. The HTRF signal was measured on a plate reader (Envision).

For data set [7], the system named is TYK2/JAK1. As to the kind of experiment: IFNα HEK293 (HEK-Blue IFN-α/β) reporter gene assay. The data set is classed as cell-based, human. As to the method:
HEK-Blue™ IFN-α/β cells were used to determine the activity of QL-1200186. After 24 h of incubation with QL-1200186, HEK-Blue™ IFN-α/β cells (Invivogen; NKB-IFNAB) were stimulated with human IFNα (200 U/mL; catalog number: 11200–2; PBL Assay Science; Piscataway, NJ, USA) for 6 h. Stimulation of HEK-Blue IFN-α/β cells with human IFNα activates the JAK/STAT/ISGF3 pathway and subsequently induces the production of SEAP. Levels of SEAP in the supernatant were readily assessable using QUANTI-Blue™ Solution (InvivoGen, San Diego, CA, USA).
On the technique in general: In a reporter assay the amount or activity of a reporter protein is the signal.

Each structure is given as a SMILES string.

Chain of JAK1 (JH1) (P23458 875-1153 limits assumed): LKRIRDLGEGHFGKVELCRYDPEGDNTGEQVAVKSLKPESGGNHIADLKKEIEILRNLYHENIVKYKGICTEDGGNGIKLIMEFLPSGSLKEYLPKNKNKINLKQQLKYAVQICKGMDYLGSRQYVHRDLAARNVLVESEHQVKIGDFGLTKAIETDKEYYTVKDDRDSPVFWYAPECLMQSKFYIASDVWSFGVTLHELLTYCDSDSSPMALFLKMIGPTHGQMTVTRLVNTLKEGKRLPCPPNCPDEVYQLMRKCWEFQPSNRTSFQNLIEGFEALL
T1 sequence (P29597 589-875 limits assumed): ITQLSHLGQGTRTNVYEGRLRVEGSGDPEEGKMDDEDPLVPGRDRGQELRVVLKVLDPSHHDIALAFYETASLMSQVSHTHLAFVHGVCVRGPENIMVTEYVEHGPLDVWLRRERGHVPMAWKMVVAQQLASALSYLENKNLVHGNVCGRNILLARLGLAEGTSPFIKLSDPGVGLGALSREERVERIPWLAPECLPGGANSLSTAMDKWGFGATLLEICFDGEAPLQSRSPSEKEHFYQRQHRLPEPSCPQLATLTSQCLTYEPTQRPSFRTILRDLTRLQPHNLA
Chain of CYP450 2D6 (P10635 whole entry): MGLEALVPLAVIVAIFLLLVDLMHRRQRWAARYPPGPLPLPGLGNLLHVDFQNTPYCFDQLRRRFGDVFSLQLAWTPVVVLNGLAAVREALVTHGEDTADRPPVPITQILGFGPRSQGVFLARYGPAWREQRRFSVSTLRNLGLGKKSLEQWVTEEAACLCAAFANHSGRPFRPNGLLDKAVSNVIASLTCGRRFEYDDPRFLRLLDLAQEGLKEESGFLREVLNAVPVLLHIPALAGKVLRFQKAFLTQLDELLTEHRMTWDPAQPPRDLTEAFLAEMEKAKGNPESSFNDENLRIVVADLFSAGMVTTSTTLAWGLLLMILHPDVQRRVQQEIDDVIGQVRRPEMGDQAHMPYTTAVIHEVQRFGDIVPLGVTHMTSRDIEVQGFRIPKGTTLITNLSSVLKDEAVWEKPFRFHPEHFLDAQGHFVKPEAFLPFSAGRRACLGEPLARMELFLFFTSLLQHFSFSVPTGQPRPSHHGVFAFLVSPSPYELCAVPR

As for `CNC(=O)c1cnc2cc1Nc1cc(cc(-c3ccn(C)n3)c1OC)CCOCc1cccc(n1)N2` [QL-1200186, 5^6-methoxy-N-methyl-5^5-(1-methyl-1H-pyrazol-3-yl)-8-oxa-2,4-diaza-1(2,6),3(2,4)-dipyridina-5(1,3)-benzenacyclononaphane-3^5-carboxamide], the “differentiation and maturation of monocytes into dendritic cells (CD80, CD83, CD86 expression)” value with human monocytes is listed as “significantly inhibited”. Moreover, the “Selectivity fold (TYK2/JAK1)” value in [1] (TYK2 JH2 over JAK1 JH2 binding) is listed as 164 fold. Also, the 50% inhibitory concentration (IC50) is 0.06 nM in data set [1] (recombinant TYK2 JH2 domain); 32.5 nM with TYK2/JAK2 [2]; 6400 nM against CYP450 2C9; over 50000 nM against CYP450 2D6; 2900 nM against CYP450 2C19; over 50000 nM in the data set with CYP450 3A4/5. The half-inhibitory concentration (IC50) in the data set with TYK2/JAK1 [5] is 1.61 nM; on JAK1 (JH1), over 9900 nM; with TYK2/JAK1 [7] it was 3.9 nM. In the data set “logD7.4”, the logD7.4 was 3.6. For the same compound, the “IFNγ production in human whole blood” value in the data set with TYK2/JAK2 [3] is reported as “significantly reduced”. For the same compound, in the data set on JAK1/JAK3 [4], the “activity in IL-2-mediated JAK1/JAK3 signaling” value is given as “no activity”. Further, the “IL-2- pSTAT5 in PBMC (JAK1/JAK3) inhibition” value with JAK1/JAK3 [6] is recorded as about 18% inhibition @10μM. Also, the “Kinase assay (JH1) JAK1 IC50” value at JAK1 (JH1) is “did not show inhibitory activity”.

In general, IC50 refers to the concentration needed to halve the response being measured.
